{"source": "patent US20210349074A1", "about": "“METHOD OF TESTING TEARS AS A BIOMARKER FOR CANNABINOIDS” (priority 2020, published 2021)", "origin": "cited, not measured here", "settings": "during the first two hours after using cannabis", "data": [{"compound": "CCCCCc1cc(O)c2c(c1)OC(C)(C)[C@@H]1CCC(C)=C[C@@H]21", "note": "[THC, Δ9-tetrahydrocannabinol]", "values": [{"measurement": "average drop of participants' THC blood levels", "value": 5, "unit": "ng/mL"}]}]}
